Laboratory results reported in PubChem BioAssay (NCI).
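Dose response: 5 concentrations. Exposure: 48 h. Format: 96-well plates. Endpoint: linear interpolation; highest concentration if not reached. GI50 = concentration required for 50% inhibition of growth. At the TGI there is no net growth.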

How the values were obtained:
Assay in all cases: NCI-60 cell line screen, 48 h
[1] = tested on: SF-539 CNS
[2] = tested on: CAKI-1 renal
[3] = tested on: 786-0 renal
[4] = tested on: UACC-62 melanoma
[5] = tested on: UACC-257 melanoma
[6] = tested on: MCF7 breast
[7] = tested on: OVCAR-8 ovarian
[8] = tested on: M14 melanoma
[9] = tested on: COLO 205 colon
[10] = tested on: HOP-62 NSCLC

SMILES | GI50 [1] | TGI [1] | GI50 [2] | TGI [2] | GI50 [3] | TGI [3] | GI50 [4] | TGI [4] | GI50 [5] | TGI [5] | GI50 [6] | TGI [6] | GI50 [7] | TGI [7] | GI50 [8] | TGI [8] | GI50 [9] | TGI [9] | GI50 [10] | TGI [10]
Cn1c2c(c3c(Cl)nncc31)Cc1ccccc1-2 | 20 µM | 76.1 µM | 16.9 µM | 67.2 µM | 23.6 µM | > 100 µM | 13.9 µM | 62 µM | 48.7 µM | > 100 µM | 9.03 µM | > 100 µM | 25.5 µM | > 100 µM | 28.1 µM | > 100 µM | 15.3 µM | 50.2 µM | 25.2 µM | > 100 µM
CC[C@@H](C)/C=C(C)/C=C/C(=O)c1c(O)c(-c2ccc(O)cc2)cn(O)c1=O | 0.369 µM | 5.83 µM | 0.29 µM | 1.55 µM | 0.361 µM | 5.17 µM | 0.266 µM | 0.966 µM | 0.317 µM | 6.95 µM | 0.365 µM | 16.5 µM | 0.341 µM | 12 µM | 0.284 µM | 13.2 µM | 7.19 µM | 20.6 µM | 0.492 µM | 14.7 µM
CCNC(=O)Oc1ccc(/C(=C(/C)Cc2ccc(OC)cc2)c2ccc(OCCN(CC)CC)cc2)cc1 | 1.61 µM | 3.25 µM | 1.64 µM | 3.84 µM | 1.39 µM | 2.88 µM | 1.86 µM | 3.38 µM | 1.79 µM | 3.42 µM | 0.621 µM | 2.41 µM | 1.8 µM | 3.59 µM | 1.72 µM | 3.62 µM | 1.94 µM | 3.82 µM | 1.68 µM | 4.14 µM
